# Results reported in patent US20180251431A1 (VERTEX PHARMACEUTICALS INCORPORATED, priority 2016, published 2018).
# Experiments:
# [1] = test system: healthy human fibroblasts; assay: Reduction in C26:0 LPC in healthy human fibroblasts in vitro; format: cell-based; details: Healthy 2 Fibroblast, half maximal reduction in C26:0 LPC, each number a separate measurement
# ABCD1 KO mice = assay: Reduction of C26:0 LPC, SC-VLCFA and acyl carnitine levels in ABCD1 KO brains; format: in vivo, mouse; details: for reduction of brain C26:0 acyl carnitine levels: after 2 months of treatment
# Method: To examine the effect of Compound 87 on VLCFA levels in the CNS, female ABCD1 KO mice were treated with vehicle, 1 or 10 mg/kg PO QD for 2 weeks (14 days; n=5 per group), 1 month (28 days; n=5 per group), 2 months (56 days; n=6 per group), or 3 months (84 days; n=6 per group). The brain samples used in this study were from the same mice used in the long term dosing study in ABCD1 knock-out mice and WT mice (see Example 2.3). Brain tissue samples were collected after 2, 4, 8, or 12 weeks of dosing with vehicle or Compound 87. Brain samples were frozen at −70° C. and were analyzed for VLCFA (LPC, SC-VLCFA, acyl-carnitines) via liquid chromatography-mass spectrometry (LCMS) as described below. The vehicle used was 2% TPGS and Compound 87 doses were prepared in 2% TPGS.
# Levels of VLCFA, including straight chain very long chain fatty acids (SC-VLCFA), acyl carnitines, and lysophosphatidylcholines (LPC), in the brain were examined. SC-VLCFA were expected to be rapidly incorporated into other forms and acyl carnitines were expected to be rapidly degraded, contributing to a short expected half-life for these forms. LPC was expected to integrate into membranes, contributing to a longer expected half-life.
# Brain Sample Preparation:
# (i) 3 volumes of MeOH was add to each sample; (ii) homogenized tissue samples with FastPrep (FP120) at 4.5 intensity for 25 seconds; and (iii) aliquoted tissue lysates.
# LPC and Acylcarnitine Extraction with CHCl3/MeOH Liquid-Liquid Extraction:
# Added 1 mL MeOH, then added 1 mL […] to the brain tissue lysates; incubated 30 minutes at room temperature; added 1 mL CHCl3 and 0.75 mL H2O; incubated 30 minutes; centrifuged max for 10 minutes; transferred lower layer to new vials; organic phase was dried using Turbo-Vac. The resulting residue was re-constituted with MeOH.
# 3-Step Chemical Derivatization of SC-VLCFA Using Dimethylaminoethanol (VLCFA-DMAE):
# (i) added oxalyl chloride (2 mol/l oxalyl chloride in CH2Cl2, 200 ul) to the dried mixture, incubated at 65° C. for 5 minutes; (ii) added 60 uL dimethylaminoethanol, incubated at 25° C. for 5 minutes and dried down; (iii) added 100 uL methyl iodide, incubated briefly and dried down. The resulting residue was re-constituted with ethanol (EtOH).
# LCMSMS Detection of VLCFA (e.g., Spingomyelin (SM) and LPC and Derivatized VLCFA (FA-DMAE)):
# LPC Detection: • Column: Discovery C18, 2.1×20 mm • Phase A: 50% MeOH/5 mM AF; Phase B: 2-propanol • MS: 4000 Qtrap operated in ESI MRM positive mode
# FA-DMAE Detection: • Column: Synergi Polar RP, 2×150 mm • Phase A: H2O/0.1% FA; Phase B: ACN/0.1% FA • MS: 4000 Qtrap operated in ESI MRM positive mode
# [2] = Metabolic intrinsic clearance in dog hepatocytes; format: in vitro ADME; details: beagle, cryopreserved hepatocytes in suspension, pH 7.5, 0.5 million cells/mL, incubation for 4 hours
# Method: The metabolic intrinsic clearance (CLint) of Compound 87 was determined in human, monkey, dog, rat, and mouse hepatocytes. Cryopreserved human hepatocytes (Lot Hue50c), monkey hepatocytes (cynomolgus; Lot Cy328), dog hepatocytes (beagle, Lot Db235), rat hepatocytes (Sprague Dawley; NNH), and mouse hepatocytes (CD-1; Lot Mc522) were obtained from ThermoFisher (Paisley, UK). In separate experiments, compound 87 (1 μM) was incubated with hepatocytes from each species (0.5 million cells/mL, suspension) in Dulbecco's Modified Eagle's Medium (DMEM) supplemented with 4-(2-Hydroxyethyl)piperazine-1-ethanesulfonic acid (HEPES, 9 mM) and fructose (2.2 mM) (pH 7.5). Samples were quenched with acetonitrile and analyzed by LC-MS/MS. The mean CLint for Compound 87 in human, monkey, dog, rat, and mouse hepatocytes after incubation for 4 hours was determined to be ≤2.5, ≤2.5, 7.2, 23.6 and 10.7 μL/min/million cells. Based on these date, Compound 87 was low to moderately metabolized in hepatocytes in mouse, rat, dog, monkey, and human, and the rank order of stability at […] was approximately human>monkey>dog>mouse>rat. […] The metabolic stability of Compound 87 was not expected.
# [3] = 1 mg/kg or 10 mg/kg PO QD, after 2 weeks of dosing
structure (smiles),measurement,setting,value
"O=C(Nc1ccn(-c2ccnc(F)c2)n1)C1(c2ccccc2F)CC1 [Compound 87, 1-(2-fluorophenyl)-N-[1-(2-fluoro-4-pyridyl)pyrazol-3-yl]cyclopropanecarboxamide]",IC50,[1],6 nM
same,IC50,"[1]; Homo sapiens, Fibroblast",9 nM
same,reduction in brain C26:0 LPC,"ABCD1 KO mice; 1 mg/kg PO QD, 2 months",~30%
same,reduction of brain C26:0 SC-VLCFA levels,"ABCD1 KO mice; 1 mg/kg PO QD, 2 months",about 30%
same,reduction in brain C26:0 LPC,"ABCD1 KO mice; 1 mg/kg PO QD, 3 months",~30%
same,reduction of brain C26:0 SC-VLCFA levels,"ABCD1 KO mice; 1 mg/kg PO QD, 3 months",about 50%
same,reduction of brain C26:0 acyl carnitine levels,ABCD1 KO mice; 1 mg/kg PO QD,~50%
same,brain C24:0 LPC levels (normalized by C16:0 LPC levels),"ABCD1 KO mice; 1 mg/kg or 10 mg/kg PO QD, 3 months",significant reduction
same,brain LPC levels,ABCD1 KO mice; [3],no changes
same,brain SC-VLCFA levels,ABCD1 KO mice; [3],no changes
same,reduction in brain C26:0 LPC,"ABCD1 KO mice; 10 mg/kg PO QD, 2 months",~40%
same,reduction of brain C26:0 SC-VLCFA levels,"ABCD1 KO mice; 10 mg/kg PO QD, 2 months",about 55%
same,reduction of brain C26:0 acyl carnitine levels,ABCD1 KO mice; 10 mg/kg PO QD,~70%
same,brain C24:0 SC-VLCFA level,"ABCD1 KO mice; 10 mg/kg PO QD, after 3 months of dosing",significant reduction
same,hepatocyte CLint at 1 μM,[2],7.2 µL/min/1e6 cells
